Experimental data as given in patent US20240059729A1, “MULTIFUNCTIONAL CYCLIC DINUCLEOTIDE AND USE THEREOF” (TYLIGAND BIOSCIENCE (SHANGHAI) LIMITED, priority 2020, published 2024).
Where a name gives a salt, the structure may show the parent alone.

What was measured:
CT26 cells [1] = test: Inhibition of proliferation of CT26 cells (CellTiter-Glo); type: cell-based, mouse; conditions: for IC50: 120 hours, CellTiter-Glo
Protocol: CT26 cell is a mouse colorectal cancer cell line. This assay used the CellTiter-Glo Luminescence Cell Vitality Assay kit from Promega to evaluate the inhibitory activity of the compounds on the proliferation of CT26 cells.
In thawing the CT26 cells (ATCC #CRL-2638), a cell freezing tube was quickly shaken in a water bath at 37° C. to thaw the cells within 1 min. The thawed cell suspension was taken and evenly mixed with DMEM medium (GE, Cat #SH30243.01) containing 10% FBS (GIBCO, Cat #10099-141), centrifuged for 5 min at 1000 rpm, and the supernatant was discarded. The cell pellet was resuspended in 5 mL of the complete medium (DMEM medium containing 10% FBS), placed into a cell culture flask with a bottom area of 25 cm^2, and incubated in a cell incubator at 37° C., 5% CO2 and 95% humidity. When the cell confluence reached 70%˜80%, the cells were passaged. All the cells in the culture flask were transferred to a 15 mL centrifuge tube, centrifuged for 5 min at 1000 rpm, and the supernatant was discarded. 5 mL of fresh complete medium was added to re-suspend the cell pellet, 1 mL of which was taken to place in a cell culture flask with a bottom area of 25 cm^2, supplemented with 4 mL of fresh complete medium for further incubation. When the cell confluence reached 70%-80% again, plating was conducted following the procedure of cell passage, retaining 1/5 cell suspension for further inculation and remaining 4/5 of the cell suspension in a 15 mL centrifuge tube.
The cell suspension was centrifuged to discard the old culture medium, washed once using DMEM medium (serum-free), and centrifuged to remove the supernatant. The cells were then re-suspended in DMEM medium (serum-free). Cell viability was then detected by Trypan blue exclusion test and to be used for plating when the cell viability was confirmed to be more than 95%. A cell suspension with a density of 1.1×10^4 viable cells/mL was prepared using DMEM medium (serum-free), and 90 μL of the cell suspension was added to a 96-well 96-well transparent flat-bottomed black-walled cell culture plate (Corning, Cat #3603) so that the cell density in the plate was 1000 viable cells/well. A control group containing no cells, no compound, and complete medium only (i.e., a culture medium control), and a control group containing no compound but cells (i.e., a cell control) were set. The cell plates were placed in a cell incubator overnight.
A 10 mM stock solution of the compounds in DMSO was first serially diluted at 3.16-fold with DMSO (Sigma, Cat #D2650) to the 9th concentration, and the 10th concentration was set as DMSO control (compound-free). Then, the DMSO solutions containing different concentrations of the compounds were diluted at 10-fold with PBS (Solarbio, Cat #P1020) so that the DMSO content in each compound solution of various concentrations was 10%. Finally, 10 μL of each of such solutions was added into corresponding cell culture plate to provide an initial compound concentration of 100 μM, with the dilution fold of adjacent concentrations being 3.16 and the DMSO content in the cell culture plate being 1%. The cell plate was placed in a cell incubator for further 120 hours.
After 120 hours, the CellTiter-Glo reagent (Promega, Cat #G7572) was thawed and the plates were equilibrated at room temperature for 30 min. 100 uL of CellTiter-Glo was added to each well of the plate, and the cells were lysed thoroughly by shaking on an orbital shaker for 5 min. The plates were placed at room temperature for 20 min to stabilize the luminescence signal, and the luminescence value of each well was scanned at full wavelength with a multifunctional microplate reader (Molecular Devices, Spectramax M3). […]

CT26 cells [2] = test: Anti-tumor activity in bilateral transplantation tumor model of CT26 syngeneic mouse; type: in vivo, BALB/c mice; conditions: Day 0 and Day 4; for Growth inhibition rate, untreated left tumor: Day 13 post-dose, 50 μg/mouse intratumorally right side; for Inhibition of tumor growth, treated right-side tumor: Day 13 post-dosing, 50 μg/mouse (2.5 mg/kg) intratumorally right side
Protocol: BALB/c mice of 6-8 weeks (purchased from Shanghai Ling Chang Biotech Co., Ltd.) were inoculated with 5×10^5 CT26 cells (supplied by Taicang Zexin Biotechnology Co., Ltd., ATCC #CRL-2638) subcutaneously on the left and right back dorsal, respectively, and the inoculation volume was 0.1 mL/side. When tumors grew to an average volume of 100 mm^3, they were randomized according to tumor size and mouse body weight and dosing was initiated. The day of the first dose was Day 0.
Two doses were administered on Day 0 and Day 4, with 50 μg of compound/mouse (i.e., 2.5 mg/kg) injected intratumorally right side, with the same volume of PBS (Hyclone, Cat #SH30258.01) as a control. The tumor on the left side was not treated. The control mice were sacrificed 13 days and the treated mice were sacrificed 21 days, after dosing. During the experiment, tumor volumes on the left and right sides and the body weights were measured 3 times per week, and the tumor volume was calculated as V=D×d×d/2 (where D represents length of tumor and d represents width of tumor).

Structure (SMILES)	Inhibitory potency on in vitro growth of CT26 tumor cells (in words) (CT26 cells [1])	IC50 (CT26 cells [1]) [µM]	Growth inhibition rate, untreated left tumor (CT26 cells [2]) [%]	Inhibition of tumor growth, treated right-side tumor (CT26 cells [2]) [%]	IC50 (CT26 cells [1]; Mus musculus) [µM]
Nc1ncnc2c1ncn2[C@@H]1O[C@@H]2COP(=O)([S-])O[C@@H]3[C@H](O)[C@@H](COP([O-])(=S)O[C@H]2[C@H]1O)O[C@H]3n1cnc2c(N)ncnc21.[Na+].[Na+] (stereo partly shown) [ADU-S100, reference compound]	no significant tumor cell inhibitory potency	> 10	64.2	99.1	
Nc1nc2c(ncn2[C@@H]2O[C@@H]3CO[P@@](=O)(S)OC4C(F)[C@H](n5cnc6c(N)nc(Cl)nc65)O[C@@H]4CO[P@@](=O)(S)OC2C3O)c(=O)[nH]1 (stereo partly drawn) [Example 10, (2′,3′)-cyclo-(Rp,Rp)-[2′-O-phosphorothioate-diester-guanosine]-[3′-O-phosphorothioate-diester-2-chloro-2′-deoxy-2′-fluoro-beta-adenosine] diammonium salt]	particularly significant inhibitory potency		91.2		< 1
Nc1nc2c(ncn2[C@@H]2O[C@@H]3CO[P@@](=O)(S)OC4C(F)[C@H](n5cnc6c(N)nc(Cl)nc65)O[C@@H]4CO[P@@](=O)(S)OC3C2O)c(=O)[nH]1 (stereo partly shown) [Example 17, diammonium salt]			67.4	99.5	1 to 10
